{"source": "patent US11905272B1", "about": "“3-(2-(4-methoxypyridin-3-yl)-4,5-diphenyl-1H-imidazol-1-yl)-N,N-dimethylpropan-1-amine as an anti-cancer compound” (KING FAISAL UNIVERSITY, priority 2023, dated 2024)", "key": {"[1]": {"system": "human prostate cancer cells (PC3)", "assay": "Assessment of cytotoxicity by SRB assay (PC3)", "assay_type": "cell-based", "settings": "0.01 μM to 100 μM, 72 h", "experimental": "(§1) The human prostate cancer cells (PC3) and human osteosarcoma cells (MG-63) were obtained from Nawah Scientific Inc. (Mokatam, Cairo, Egypt) and cultured in DMEM (Dulbecco's modified eagle's medium), Gibco, USA, supplemented with fetal bovine serum (FBS) at a concentration of 10% and 100 U/mL of penicillin and streptomycin (PS). The Cells were incubated at 37° C. in a humidified environment that contained 5% CO2.\n(§2) Cells were seeded in 96-well plates as aliquots of 100 μL cell suspension and incubated in a complete media for 24 h. Afterward, cells were treated with 3-(2-(4-methoxypyridin-3-yl)-4,5-diphenyl-1H-imidazol-1-yl)-N,N-dimethylpropan-1-amine at diverse concentrations ranging from 0.01 μM to 100 μM for 72 h. Then, cells were fixed at 4° C. for one hour with 150 μL of 10% trichloroacetic acid (TCA). After washing the cells five times with distilled water, 70 μL of sulforhodamine (SRB) solution (0.4% w/v) was added and incubated for 10 min at room temperature in a dark place. […] Then, 150 μL of Tris pH 10.5 (10 mM) was added, and the absorbance was measured at 540 nm using a BMG LABTECH®-FLUOstar Omega microplate reader (Ortenberg, Germany). Half maximal inhibitory concentrations (IC50) values were calculated for each experiment using GraphPad Prism 6 software. […]\n(§3) The inhibition was calculated using the following equation: Inhibition %=100−Average Viability"}, "[2]": {"system": "human osteosarcoma cells (MG-63)", "assay": "Assessment of cytotoxicity by SRB assay (MG-63)", "assay_type": "cell-based", "settings": "0.01 μM to 100 μM, 72 h", "experimental": "as §1, §2, §3"}}}
{"smiles": "COc1ccncc1-c1nc(-c2ccccc2)c(-c2ccccc2)n1CCCN(C)C", "note": "[3-(2-(4-methoxypyridin-3-yl)-4,5-diphenyl-1H-imidazol-1-yl)-N,N-dimethylpropan-1-amine]", "values": [{"measurement": "antiproliferative activity against cancer cells (PC3)", "setting": "[1]", "value": "excellent antiproliferative activities"}, {"measurement": "antiproliferative activity against osteosarcoma (MG-63) cells", "setting": "[2]", "value": "excellent antiproliferative activities"}, {"measurement": "melting point", "value": "128 to 131", "unit": "°C"}]}
